Some test systems named below: T-47D breast; DLD-1 colon; DMS 114 small cell lung; HOP-18 NSCLC; LXFL 529 NSCLC; M19-MEL melanoma; MDA-N; KM20L2 colon.
Experiment in all cases: NCI tumour cell line growth inhibition, 48 h

Molecules are shown by their SMILES. Where “and” joins values, the source holds several entries; their conditions need not be identical. Equal entries are not always repeated.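 Method: 48-hour compound exposure of cells in 96-well plates, five concentrations, linear interpolation of endpoints. The concentration for 50% growth inhibition is given as GI50. The concentration for full growth arrest is given as TGI.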

Take `Cc1nc2ccccn2c1NC(=O)NN1C(=O)CSC1c1ccc(Cl)cc1` (configuration not stated): in the assay on T-47D breast, the GI50 was more than 100 µM and the TGI is more than 100 µM.
`CN(C)c1ccc(C(=S)c2ccc(N(C)C)cc2)cc1`: in the assay on T-47D breast, the GI50 was 6.34 µM and the TGI was more than 100 µM.
As to `C[C@@H]1CC[C@H]2[C@@H](C)C(O)O[C@@H]3O[C@]4(C)CC[C@@H]1[C@]32OO4` (some centres not stated), the GI50 in the assay with T-47D breast is 0.285 µM.
Regarding `COc1ccc(-c2nn(-c3cccc(Cl)c3)cc2/C=C2\NC(=S)N(c3ccc(Cl)cc3)C2=O)cc1`, in the assay on T-47D breast, the GI50 was 3.61 µM and the TGI was found to be 9.7 µM.
Consider `O=C1OC(CC(=O)c2ccc(F)cc2)C(Cl)=C1Cl` (configuration not stated), for which the TGI in the assay on DLD-1 colon was 47.4 µM; in the assay with DMS 114 small cell lung, more than 100 µM; with HOP-18 NSCLC it was 44.6 µM; in the assay with LXFL 529 NSCLC it was 31.9 µM; in the assay on M19-MEL melanoma it was more than 100 µM.
For the compound `CCOC(=O)C1(CC(=O)O)CCCC1=O` (configuration not stated), the TGI with MDA-N and in the assay with T-47D breast was more than 100 µM each time.
On to `Oc1ccc(NC(=S)Nc2ccccc2)cc1`, for which, in the assay with T-47D breast, the GI50 is more than 100 µM and the TGI is more than 100 µM.
As for `C=CC(=O)N[C@@H]1CN(c2nc(Nc3cn(C)nc3OC)c3ncn(C)c3n2)C[C@H]1F`, in the assay with T-47D breast, the GI50 was 1.74 µM and the TGI is more than 100 µM.
Regarding `C/C(NNC(=O)c1ccccc1O)=C1\C=Nc2ccccc2S1`, the TGI in the assay with DLD-1 colon was more than 100 µM; in the assay with HOP-18 NSCLC, 49.6 µM; in the assay with KM20L2 colon, more than 100 µM; in the assay on LXFL 529 NSCLC, more than 100 µM; with M19-MEL melanoma, more than 100 µM.
Consider `O=c1cc(-c2ccc(Cl)cc2)[nH]c2ccccc12`, for which, in the assay with T-47D breast, the GI50 is 63.2 µM and the TGI is more than 100 µM.
`COC(=O)C(=O)C(CC(=O)Nc1cc(Cl)ccc1Cl)C(=O)OC` (configuration not stated): the TGI with DMS 114 small cell lung, with HOP-18 NSCLC, in the assay with KM20L2 colon and in the assay on LXFL 529 NSCLC was more than 100 µM each time.
`Oc1ccc2ccccc2c1CCc1c(O)ccc2ccccc12`: the TGI with MDA-N is 27.6 µM; in the assay on T-47D breast, 12.5 µM.
As for `C#CCN(N=O)C(=O)NC(CCCCNC(=O)OCc1ccccc1)C(=O)OCc1ccccc1` (configuration not stated), the TGI in the assay on DLD-1 colon was 42.7 µM; in the assay with DMS 114 small cell lung it was 44 µM; with HOP-18 NSCLC it was 44.9 µM; in the assay on KM20L2 colon, more than 100 µM; with LXFL 529 NSCLC it was 31.7 µM; in the assay on M19-MEL melanoma, more than 100 µM.
As to `CCN(C(=O)N1CCN(c2cc3c(cc2F)c(=O)c(C(=O)O)cn3C2CC2)CC1)c1nc(-c2ccccc2)cs1`, in the assay with T-47D breast, the GI50 was 2.57 µM and the TGI is more than 100 µM.
For `O=C(Nc1ccc(OS(=O)(=O)c2ccc(F)cc2)cc1)C12CC3CC(CC(C3)C1)C2`, in that order: 0.831 µM and more than 100 µM.
Take `O=C(NC1CCN(Cc2ccccc2)CC1)c1cc(-c2cccnc2)nc2ccc(Cl)cc12`: in the assay on T-47D breast, the GI50 is 3.7 µM and the TGI was found to be 53.1 µM.
As to `N#CCc1c(F)c(F)c(F)c(F)c1F`, the TGI with MDA-N and in the assay with T-47D breast was more than 100 µM each time.
For the compound `CCc1cccc(C(C)C)c1NC(=O)CC1Sc2ccccc2NC1=O` (configuration not stated), the TGI in the assay with DLD-1 colon, in the assay with DMS 114 small cell lung, with HOP-18 NSCLC, with LXFL 529 NSCLC and in the assay on M19-MEL melanoma was more than 100 µM in each case.
Consider `OCC1NC(COC2OC(CO)C(O)C(O)C2O)C(O)C(O)C1O` (configuration not stated), for which the TGI in the assay on MDA-N and in the assay on T-47D breast was more than 100 µM in each case.
Take `C=C1CCC2CC1C(C(=O)c1c[nH]c3ccccc13)=NC2(C)C` (configuration not stated): the TGI in the assay on MDA-N and in the assay with T-47D breast was more than 100 µM each time.
On to `Cc1c2cnccc2c(C)c2c1c1cc(O)ccc1n2C(C)C`, for which, in the assay with T-47D breast, the GI50 is 1.98 µM and the TGI is 6.27 µM.
In the case of `O=C(O)C1C2C=CC(O2)C1C(=O)NCc1cccnc1` (configuration not stated), the TGI with MDA-N and with T-47D breast was more than 100 µM each time.
`Cc1cc(S(=O)(=O)/N=C(\N)Nc2cccc(O)c2)c(SCc2ccccc2)cc1Cl`: in the assay with T-47D breast, the GI50 was 19.4 µM and the TGI was found to be 75.7 µM.
The like results for `COc1ccc(C(=O)/C=C/c2sc(Cl)nc2Cl)cc1` were, in that order, 2.93 µM and 9.23 µM.
Take `Cc1cccc(C(C)(C)C)c1NC(=O)C(C#N)C1=C(Cl)C(=O)c2ccccc2C1=O` (configuration not stated): the TGI in the assay with DLD-1 colon came out at 33.4 µM; with DMS 114 small cell lung, 38.3 µM; in the assay with HOP-18 NSCLC it was 24.3 µM; in the assay on KM20L2 colon, 38.4 µM; with LXFL 529 NSCLC it was 29.2 µM; in the assay with MDA-N, 27.4 µM. For the same compound, the TGI in the assay on T-47D breast was 26.1 µM.
In the case of `N#C/C(=C\c1ccc(O)c(O)c1)C(=O)NCc1ccc(C(F)(F)F)cc1`, in the assay on T-47D breast, the GI50 was 8.72 µM and the TGI worked out at 59.8 µM.
With `O/N=C1/CCCC/C1=C/C=C/c1ccccc1`, the TGI was more than 100 µM with DLD-1 colon; 78.1 µM in the assay with HOP-18 NSCLC; 33.3 µM in the assay with KM20L2 colon; more than 100 µM with LXFL 529 NSCLC; 43.8 µM in the assay with M19-MEL melanoma.
As for `C[C@@H](O)[C@@H](C)Oc1nc(Nc2ccc(S(=N)(=O)C3CC3)cc2)ncc1C(F)(F)F` (some centres not stated), in the assay with T-47D breast, the GI50 was 0.0386 µM and the TGI is 6.62 µM.
Regarding `CC(=O)OCCOCn1c2ccccc2c2c3c(c4c5ccccc5n(COCCOC(C)=O)c4c21)C(=O)N(Cc1ccccc1)C3=O`, the TGI in the assay on DLD-1 colon, with KM20L2 colon, in the assay with LXFL 529 NSCLC and in the assay on M19-MEL melanoma was more than 100 µM each time.
For `N#Cc1ncc(C(Cl)Cl)nc1Cl`, the values for the TGI in the assay on MDA-N and with T-47D breast were 3.07 µM and 3.78 µM, respectively.
As to `O=CC(OC(=O)c1ccccc1)C(OC(=O)c1ccccc1)C(COC(c1ccccc1)(c1ccccc1)c1ccccc1)OC(=O)c1ccccc1` (configuration not stated), in the assay with T-47D breast, the GI50 was 4.65 µM and the TGI amounted to 22.7 µM.
For the compound `Cc1cc2c(cc1Cl)SC(N(c1ccccc1Cl)S(=O)(=O)c1ccc(Br)s1)=NS2(=O)=O`, in the assay with T-47D breast, the GI50 is 4.95 µM and the TGI was 23 µM.
With `COc1cc2c(Oc3ccc(NC(=O)C4(C(=O)Nc5ccc(F)cc5)CC4)cc3F)ccnc2cc1OCCCN1CCOCC1`, in the assay with T-47D breast, the GI50 was 1.37 µM and 1.44 µM; the TGI is 3.63 µM and > 8.02 µM.
On to `Cc1nnc(C[C@@H]2C=C(c3ccc(Cl)cc3)c3ccccc3-n3c(C)nnc32)o1`, for which, in the assay on T-47D breast, the GI50 is 0.719 µM and the TGI was more than 92.7 µM.
